Laboratory results as given in patent US20090326013A1, “ISOMERS OF INOSITOL NIACINATE AND USES THEREOF” (priority 2007, published 2009).

Legend:
[1] = 250 mg 3 times daily combined with Mg-chlorophenoxyisobutyrate; cited from earlier work
[2] = Dissolution and hydrolysis in simulated gastric fluid (SGF) pH 1.1, release of niacin; assay type: physicochemical; settings: for release of niacin in SGF, allo-IHN compared with myo-IHN (FIG. 8): SGF pH 1.1, up to 150 hours; for time to complete dissolution in SGF: 25 mg in 25 mL SGF pH 1.1, 37°C, shaking
Experimental: The hydrolysis was performed in a 37±1° C. thermostatic water bath with a shaking rate at 97±2 rpm. At various time intervals, 100 μl aliquots were taken from the reaction mixture and diluted with 1.5 mL 80/20 acetonitrile/formic acid which were used to quench the hydrolysis reaction.
The pH of the SGF solution was 1.1 at 22° C. […] The reactor was placed in a thermostatic water bath at 37±1° C. with a shaking rate at 42±1 rpm. At various reaction times, 1 mL aliquots were taken from the reaction mixture and analyzed for niacin by HPLC.

Esterase = test: Hydrolysis in pH 7.4 phosphate buffer (SIF) with esterase; assay type: in vitro ADME; settings: for degradation intermediates (penta-, tetra-, tri-, di-niacinates) observed: 16 hours
Experimental: Esterase is an enzyme found in animal liver which catalyzes the hydrolysis of esters. The esterase reaches maximum activity in pH 8.0 borate buffer at 25° C. Simulated intestinal fluid without pancreatin (SIF, 1 L) was prepared according to USP standard procedure (USP29-NF24 S2). The pH of the SIF solution was then adjusted to 7.4. Esterase (6.0 mg) was then added to 200 mL of the pH 7.4 phosphate buffer. […] After sonication for about 1 minute these suspensions were carefully transferred to the hydrolysis medium. As each suspension was added to the pH 7.4 phosphate buffer, a milky white precipitated immediately appeared. The reactors were kept in a thermostatic water bath at 37±1° C. with a shaking rate at 42±1 rpm. At various reaction times ˜2 mL aliquots were taken from the hydrolysis solutions and filtered through 0.45 μm filters in order to remove any undissolved materials. The samples for HPLC analysis were prepared by addition of 20 μL 6N HCl to 1 mL filtrate.

[3] = Dissolution and hydrolysis in pH 7.4 phosphate buffer (SIF without pancreatin); assay type: physicochemical; settings: at about 25 hours
Experimental: A pH 7.4 phosphate buffer solution was also prepared from a SIF test solution in the absence of pancreatin. […] The release of niacin and the appearance of the degradation intermediates were monitored up to about 74 hours.

[4] = Dissolution and hydrolysis in SIF with pancreatin at pH 6.7; assay type: in vitro ADME; settings: pH 6.7, up to 40 hours
Experimental: Simulated intestinal fluid (SIF) with pancreatin was prepared according to the USP standard procedure (USP29-NF24 S2) with a pH of 6.7 at 24° C.

[5] = tested on: women suffering from painful menstrual cramps; settings: 100 mg niacin twice daily, then every 2-3 hours during heavy cramps; cited from earlier work
alcoholics = settings: three or more grams of niacin daily, five year study; cited from earlier work
[6] = pH 7.4 phosphate buffer with esterase

In the case of `O=C(O[C@H]1[C@H](OC(=O)c2cccnc2)[C@@H](OC(=O)c2cccnc2)[C@H](OC(=O)c2cccnc2)[C@@H](OC(=O)c2cccnc2)[C@H]1OC(=O)c1cccnc1)c1cccnc1` [IHN, inositol hexaniacinate], the “influence on glucose tolerance” value [1] is listed as “no influence on glucose tolerance”.

For `O=C(O[C@H]1[C@H](OC(=O)c2cccnc2)[C@H](OC(=O)c2cccnc2)[C@@H](OC(=O)c2cccnc2)[C@@H](OC(=O)c2cccnc2)[C@H]1OC(=O)c1cccnc1)c1cccnc1` [allo-IHN, allo-inositol hexaniacinate], the “niacin released in SGF” value ([2]; 20 mg in 200 mL SGF pH 1.1, 37°C, 118 hours) was 38.5 µg/mL, the “onset of dissolution and hydrolysis in SGF” value ([2]; 20 mg in 200 ml SGF pH 1.1, 37°C) was “began immediately after addition to the reaction medium” and the “niacin released in SGF, % of theoretical niacin content” value ([2]; SGF pH 1.1, 118 hours, theoretical 91 μg/mL) was ~42%. The “release of niacin in SGF, allo-IHN compared with myo-IHN (FIG. 8)” value [2] was “about the same”, the “concentration of niacin released” value (Esterase; 20 mg in 200 mL pH 7.4 phosphate buffer with esterase, 25 hours) was 52.8 µg/mL and the “dissolution rate in the hydrolysis medium” value (Esterase; [6]) was “relatively fast”. The “degradation intermediates (penta-, tetra-, tri-, di-niacinates) observed” value (Esterase; [6]) was “only the degradation intermediates of allo-IHN”, the “niacin released, % of theoretical release” value (Esterase; pH 7.4 phosphate buffer with esterase, 25 hours) was ~58% and the “area response of the niacin peak compared with the myo-IHN sample” value (Esterase; pH 7.4 phosphate buffer with esterase, within one hour) was “significantly larger”. For the same compound, the “effect of the presence of esterase on release of niacin” value (Esterase; pH 7.4 phosphate buffer with vs without esterase) was “further enhances the release of niacin”, the “maximum concentration of niacin released” value ([3]; 20 mg in 200 mL pH 7.4 phosphate buffer) was 30.34 µg/mL and the “maximum niacin released, % of theoretical release” value ([3]; pH 7.4 phosphate buffer) was ~33%.

For `O=C(O[C@H]1[C@H](OC(=O)c2cccnc2)[C@@H](OC(=O)c2cccnc2)[C@H](OC(=O)c2cccnc2)[C@@H](OC(=O)c2cccnc2)[C@H]1OC(=O)c1cccnc1)c1cccnc1` [myo-IHN, myo-inositol hexaniacinate, reference compound], the “time to complete dissolution in SGF” value [2] was 6 h, the “release of niacin in SGF, allo-IHN compared with myo-IHN (FIG. 8)” value [2] was “about the same” and the “dissolution rate in the hydrolysis medium” value (Esterase; [6]) was “considerably slower than the hydrolysis rate”. The “extent of hydrolysis (FIG. 9)” value (Esterase; [6]) was “remained as a solid and did not hydrolyze”, the “degradation intermediates (penta-, tetra-, tri-, di-niacinates) observed” value (Esterase; [6]) was “absence of degradation intermediates” and the “release of niacin in SIF with pancreatin” value [4] was “very little release of niacin”.

For `O=C(O)c1cccnc1` [niacin, pyridine-3-carboxylic acid], the “participants experiencing significant relief of menstrual cramps” value [5] is given as “Ninety” and the “alcoholics who benefit from supplementation (reduced recidivism and symptom reduction)” value (alcoholics) is given as 30-60%.

For `O=C(O[C@H]1[C@H](OC(=O)c2cccnc2)[C@@H](OC(=O)c2cccnc2)[C@H](OC(=O)c2cccnc2)[C@@H](OC(=O)c2cccnc2)[C@@H]1OC(=O)c1cccnc1)c1cccnc1` [scyllo-IHN, Scyllo-inositol hexaniacinate], the “time to complete dissolution in SGF” value [2] was > 53 h and the “dissolution and hydrolysis after increasing acidity of the SGF medium” value ([2]; 2 ml concentrated HCl injected after 53 hours) was “can be dissolved and the hydrolysis reaction commences to produce niacin”.
